Data on 15 compounds can be found in patent publication US8614240B2, “Benzoxazole derivatives having inhibitory activity against interleukin-6, preparation method thereof, and pharmaceutical composition containing the same” (EWHA University-Industry Collaboration Foundation, priority 2010, dated 2013).

Like-named read-outs stand apart in the source and are kept apart here.

Series [1] relates to IL-6 reactive STAT3 reporter gene. In words: IL-6 reactive STAT3 reporter gene test (pSTAT3-TA-Luc6 luciferase) in HepG2 cells. In kind it is cell-based. As to conditions: Homo sapiens. The procedure: A pSTAT3-TA-Luc6 construct, which comprises 8 more STAT3 DNA binding sequence copies as compared to pSTAT-3-TA-Luc and thus, enables to better reflect STAT3 reporter gene assay, was prepared. STAT3 DNA binding sequence was amplified using pSTAT3-TA-Luc plasmid (Clontech, Palo Alto, Calif.) as the template, and oligonucleotide ([…]. SEQ ID NO: 1 (containing Kpn I site)) and oligonucleotide ([…] GAAGCAACGTTC (containing Xho I site)) as forward primer and reverse primer, respectively, by means of a thermocycler. The amplified PCR product was cloned, separated, and then inserted into Kpn I/Xho I site of pSTAT3-TA-Luc plasmid.
Human hepatoma cell line, HepG2 cell, was incubated in MEM (Minimal Essential Medium, WelGENE Inc, Daegu, Korea) medium under water-saturated condition at 37° C., 5% CO2. To this medium was added 10% (v/v) fetal bovine serum, streptomycin (100 U/mL) and penicillin (100 U/mL). 6-Well cell culture plate was allowed to grow cells up to 80%, and then the specimen was pre-treated for one hour. Then, the medium was changed into 50 μL of serum-free medium, and the mixed solution of 0.1 μL pSTAT3-TA-Luc6 construct and 0.3 μL lipofectamin reagent was added to each well and then allowed to react for 3 hours to transfect cells with pSTAT3-TA-Luc6 construct. The medium was changed to a fresh medium, and the plate was incubated for 24 hours to transiently transfect cells. The transfected cells were serum-starved with 1% BSA/DMEM, and treated with the samples for one hour and then, after adding IL-6, incubated for 3 hours. The mixture was washed with PBS, shaken for one minute with addition of 50 μL of lysis buffer (promega luciferase assay system). After adding 30-100 μL of luciferase substrate (Promega luciferase assay system), the mixture was measured by a luminometer within 5 minutes.
Among others Compounds 1 and 3 as the materials having high inhibitory effect on IL-6 activity were used at various concentration to measure the degree of inhibitory effect, and the results thereof are as shown in FIGS. 2 and 3.

For series [2], the system named is IL-6 induced STAT3 phosphorylation. Briefly: Test for inhibitory activity against STAT3 phosphorylation induced by IL-6 (Western blot, HepG2). In kind it is cell-based, human. The following applies: HepG2, 1, 3, 10, 30, 100 ug/ml, 10 ng/ml IL-6 (FIG. 4). The protocol:
HepG2 cells were divisionally inoculated in 6-well plate in the ratio of 5×10^4 cells/well, and grown to be 80% confluent. After changing to a serum-free medium and incubating for 6 hours, cells were pre-treated with the samples for one hour. […] Then the mixture was centrifuged (13,000×g, 15 minutes) to obtain a lysate as the supernatant. Herein, HepG2 cells not treated with IL-6 and the samples were used as the control group. The concentration of proteins was quantified by means of Bio-Rad DC protein assay kit, and the protein was loaded on 10% SDS-polyacrylamide gel (SDS-PAGE) and electrophoresed at 30 mA for 2 hours. After completion of the electrophoresis, the protein on gel was transcribed into PVDF membrane (Westran® S, pore size […]) at 90V for 90 minutes, and the transcribed membrane was blocked with Tris-buffered solution (T-TBS; 50 mM Tri-HCl, pH 7.6, 150 mM NaCl, 0.2% Tween-20, 5% skim milk) at 4° C. for 12 hours, and washed five time with T-TBS. The membrane was treated with polyclonal antibodies of phospho-STAT3 (1:1000 dilutions, respectively) as the primary antibody for 2 hours. After washing five times with T-TBS, the membrane was reacted with HRP-conjugated anti-rabbit antibody (1:5000 dilutions) as the secondary antibody for one hour. After washing with T-TBS, the film was developed in the dark room by means of ECL.

Series [3] concerns IL-6 induced ERK phosphorylation. Briefly: Test for inhibitory activity against ERK phosphorylation induced by IL-6 (Western blot, HepG2). The series is classed as cell-based, human. As to conditions: HepG2, 30 μg/ml (FIG. 5). The protocol:
HepG2 cell was divisionally inoculated in 6-well plate, and then starved for 18 hours.
The starved cells were treated with the samples for one hour, and then stimulated with IL-6 or LIF (Upstate Biotechnology, USA) for 10 minutes. The specimen was treated with 5× cell lysis buffer (Promega) sometimes with vortexing under ice for 30 minutes. The cell lysate obtained as described under B in Experiment 1 (3) was dissolved in 8% SDS-PAGE gel, and transferred to the nitrocellulose membrane. This membrane was blocked with Tris-buffered solution (50 mM Tris-HCl (pH 7.4), 150 mM NaCl, 0.1% Tween 20) containing 5% non-fat dry milk at 4° C. Then, it was incubated together with an appropriate primary antibody (ERK) present in Tris-buffered solution (50 mM Tris-HCl (pH 7.4), 150 mM NaCl, 0.1% Tween 20) containing 5% non-fat dry milk, at room temperature for 1-2 hours. This membrane was washed five times with TBS buffer solution for 10 minutes, and incubated with 1:6000 diluted horseradish peroxidase-conjugated secondary antibodies for one hour. The membrane was washed 10 times with TBS buffer solution, and then mixed and incubated with the 1:1 mixture of HRP Substrate Luminol Reagent and HRP Substrate Peroxide Solution as ELC reagent (Millipore Corp. Ma USA). The chemiluminescent signals were visualized with X-ray film.

The test system of series [4] is Respective cell lines. In words: Cytotoxicity assay (MTT). The series is classed as cell-based. The following applies: 48 hours. The procedure: In testing the compounds in cell lines, if cells are killed due to a toxicity of the compounds at the treatment concentration, a significant result cannot be obtained. Therefore, the toxicity assay was conducted by treatment with the compounds as follows. Respective cell lines were maintained on 96-well cell culture plate in the medium comprising 10% FBS with 1% Penicillin G/streptomycin, and then incubated under 37° C., 5% CO2 condition. All the experiments were repeated three times. The samples were properly diluted, and then cells were treated with the diluted samples at the concentrations of 1, 3, 10, 30, 100 μg/ml. After 48 hours, 10% (v/v) 5 mg/mL 3-(4,5-dimethylthiazol-2-yl)-2,5-diphenyltetrazolium bromide (MTT; Sigma) was added to the cell culture. After 3 hours of the incubation, the medium was aspirated and washed with PBS. After adding DMSO (100 μl), the mixture was gently agitated for 5 minutes. The absorbance was measured at 570 nm by means of VERSA max microplate reader (Molecular Devices Inc.), and the average absorbance (±SE) values as obtained from three experiments were compared with t-test, a statistical significance of P<0.05. When Compounds 1 and 3 were used at the concentrations of 1, 3, 10, 30, 100 μg/ml, the survival rates of cells were 94, 76, 70, 67, 30%, respectively, by the treatment with Compound 1, and 74, 71, 65, 57, 19%, respectively, by the treatment with Compound 3. It means that at least 50% of cells survive at the concentration (for example, 30 μg/ml) of the compounds of the present invention for measuring IL-6 inhibitory activity.

Setting [5] is: HepG2, 20 ug/ml of sample, HepG2 cells, read-out: Inhibition % of IL-6 reactive STAT3 reporter gene activity.

Turning to `CCc1ccc(Nc2nc3cc(N)ccc3o2)cc1` [Compound 1, N^2-(4-ethylphenyl)benzo[d]oxazole-2,5-diamine], in series [1] (setting [5]), the inhibition at 20 µg/mL came out at 97%. Further, in series [1] (HepG2 cells, various concentrations (FIGS. 2 and 3), read-out: IC50 of IL-6 inhibitory activity (STAT3 reporter gene)), the IC50 was 18.9 µM. In addition, the “Inhibitory activity on IL-6 induced STAT3 phosphorylation” value in series [2] is recorded as “inhibited IL-6 expression in a concentration-dependent manner”. The “Influence on IL-6 induced ERK phosphorylation” value in series [3] is “did not influence on ERK phosphorylation”. For the same compound, the “Survival rate of cells” value in series [4] (1 μg/ml) was determined as 94%; in series [4] (3 μg/ml), 76%; in series [4] (10 μg/ml), 70%; in series [4] (30 μg/ml) it was 67%; in series [4] (100 μg/ml) it was 30%.
As to `CCc1ccc(Nc2nc3cc(NC(=O)Cc4ccccc4)ccc3o2)cc1` [Compound 2, N-(2-(4-ethylphenylamino)benzo[d]oxazol-5-yl)-2-phenylacetamide], the melting point was over 250 °C. Moreover, the inhibition at 20 µg/mL in series [1] (setting [5]) was 61.7%.
Taken in the same sequence, the figures for `CCc1ccc(Nc2nc3cc(NC(=O)c4ccc(Cl)cc4)ccc3o2)cc1` [Compound 4, 4-chloro-N-(2-(4-ethylphenylamino)benzo[d]oxazol-5-yl)benzamide] were over 250 °C and 12.1%.
Taken in the same sequence, the figures for `CCc1ccc(Nc2nc3cc(NC(=O)c4ccc([N+](=O)[O-])cc4Cl)ccc3o2)cc1` [Compound 5, 2-chloro-N-(2-(4-ethylphenylamino)benzo[d]oxazol-5-yl)-4-nitrobenzamide] were over 250 °C and 20%.
`CCc1ccc(Nc2nc3cc(NC(=O)c4cc([N+](=O)[O-])ccc4Cl)ccc3o2)cc1` [Compound 6, 2-chloro-N-(2-(4-ethylphenylamino)benzo[d]oxazol-5-yl)-5-nitrobenzamide]: the inhibition at 20 µg/mL in series [1] (setting [5]) came to 65.6%.
In the case of `CCc1ccc(Nc2nc3cc(NC(=O)c4ccc(Cl)c(Cl)c4)ccc3o2)cc1` [Compound 7, 3,4-dichloro-N-(2-(4-ethylphenylamino)-benzo[d]oxazol-5-yl)benzamide], the inhibition at 20 µg/mL in series [1] (setting [5]) is 69.3%.
Same read-out and setting: under `CCc1ccc(Nc2nc3cc(NC(=O)c4cccc(CCl)c4)ccc3o2)cc1` [Compound 8, 3-(chloromethyl)-N-(2-(4-ethylphenyl-amino)benzo[d]oxazol-5-yl)benzamide] stands over 80%.
As to `CCc1ccc(Nc2nc3cc(NC(=O)c4ccc(CC)cc4)ccc3o2)cc1` [Compound 9, 4-ethyl-N-(2-(4-ethylphenylamino)benzo[d]oxazol-5-yl)benzamide], the melting point was over 250 °C. For the same compound, the inhibition at 20 µg/mL in series [1] (setting [5]) amounted to 63.3%.
Taken in the same sequence, the figures for `CCc1ccc(Nc2nc3cc(NC(=O)c4cc(F)cc(C(F)(F)F)c4)ccc3o2)cc1` [Compound 10, N-(2-(4-ethylphenylamino)benzo[d]oxazol-5-yl)-3-fluoro-5-(trifluoromethyl)benzamide] were over 250 °C and 50.2%.
Taken in the same sequence, the figures for `CCOc1ccccc1C(=O)Nc1ccc2oc(Nc3ccc(CC)cc3)nc2c1` [Compound 11, 2-ethoxy-N-(2-(4-ethylphenylamino)-benzo[d]oxazol-5-yl)benzamide] were 181.6 to 182 °C and 58%.
Regarding `CCc1ccc(Nc2nc3cc(NC(=O)c4ccc(C(C)(C)C)cc4)ccc3o2)cc1` [Compound 12, 4-tert-butyl-N-(2-(4-ethylphenylamino)-benzo[d]oxazol-5-yl)benzamide], in series [1] (setting [5]), the inhibition at 20 µg/mL is over 80%.
In the case of `CCc1ccc(Nc2nc3cc(NC(=O)c4ccc(OC)c(OC)c4)ccc3o2)cc1` [Compound 13, N-(2-(4-ethylphenylamino)benzo[d]oxazol-5-yl)-3,4-dimethoxybenzamide], the melting point is over 250 °C. The inhibition at 20 µg/mL in series [1] (setting [5]) was 26.2%.
In turn, `CCc1ccc(Nc2nc3cc(NC(=O)c4cc(OC)c(OC)c(OC)c4)ccc3o2)cc1` [Compound 14, N-(2-(4-ethylphenylamino)benzo[d]oxazol-5-yl)-3,4,5-trimethoxybenzamide] returned a melting point of over 250 °C. For the same compound, the inhibition at 20 µg/mL in series [1] (HepG2, read-out: Inhibition % of IL-6 reactive STAT3 reporter gene activity, 20 ug/ml of sample, HepG2 cells) was over 80%.
`CCCCCCCc1ccc(C(=O)Nc2ccc3oc(Nc4ccc(CC)cc4)nc3c2)cc1` [Compound 15, N-(2-(4-ethylphenylamino)benzo[d]oxazol-5-yl)-4-heptylbenzamide] registered a melting point of 244.8 to 246 °C. In addition, the inhibition at 20 µg/mL in series [1] (setting [5]) was found to be 57.2%.
As to `CCc1ccc(Nc2nc3cc(NC(=O)c4ccccc4Nc4cccc(C(F)(F)F)c4)ccc3o2)cc1` [Compound 16, N-(2-(4-ethylphenylamino)benzo[d]oxazol-5-yl)-2-(3-(trifluoromethyl)phenylamino)benzamide], the melting point was in the range of 174 to 176 °C. In addition, the inhibition at 20 µg/mL in series [1] (setting [5]) is over 80%.
